Assay results published in ChEMBL document CHEMBL5543151, “Rational Design of a Novel Class of Human ClpP Agonists through a Ring-Opening Strategy with Enhanced Antileukemia Activity” (J Med Chem, 2024).

Columns and labels:
[1] = molecular target: ATP-dependent Clp protease proteolytic subunit, mitochondrial (Homo sapiens, UniProt Q16740); test: Agonist activity at human Casein lysing protease P (HsClpP) assessed as increase in peptidase activity using fluorescent peptide AC-WLA-AMC as substrate measured after 2 hrs by […]
ATP-dependent Clp protease proteolytic subunit, mitochondrial, sequence (Q16740 whole entry): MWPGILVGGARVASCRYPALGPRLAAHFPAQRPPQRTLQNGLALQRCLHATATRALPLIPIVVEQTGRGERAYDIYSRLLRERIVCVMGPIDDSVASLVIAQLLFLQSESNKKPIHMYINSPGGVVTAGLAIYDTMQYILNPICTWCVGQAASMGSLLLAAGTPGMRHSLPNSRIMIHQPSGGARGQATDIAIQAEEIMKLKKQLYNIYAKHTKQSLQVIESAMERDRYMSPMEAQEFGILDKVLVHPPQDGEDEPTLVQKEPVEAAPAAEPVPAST

MV4-11 [2] = test: Anti-leukemia activity against human MV4-11 cells assessed as decrease in cell proliferation incubated for 72 hrs by CCK-8 assay; type: functional, cell-based; conditions: MV4-11, 72 h
[3] = Cmax in Sprague-Dawley rat at 5 mg/kg, iv measured upto 12 hrs by LC-MS analysis; type: ADME, organism-based; conditions: in vivo
[4] = AUC(0 to 12hrs) in Sprague-Dawley rat at 5 mg/kg, iv measured upto 12 hrs by LC-MS analysis; type: ADME, organism-based; conditions: in vivo
[5] = Half life in Sprague-Dawley rat at 5 mg/kg, iv measured upto 12 hrs by LC-MS analysis; type: ADME, organism-based; conditions: in vivo
[6] = Clearance in Sprague-Dawley rat at 5 mg/kg, iv measured upto 12 hrs by LC-MS analysis; type: ADME, organism-based; conditions: in vivo
[7] = MRT (0 to 12hrs) in Sprague-Dawley rat at 5 mg/kg, iv measured upto 12 hrs by LC-MS analysis; type: ADME, organism-based; conditions: in vivo
[8] = Bioavailability in Sprague-Dawley rat at 5 mg/kg, iv measured upto 12 hrs by LC-MS analysis; type: ADME, organism-based; conditions: in vivo
[9] = Cmax in Sprague-Dawley rat at 15 mg/kg, po measured upto 12 hrs by LC-MS analysis; type: ADME, organism-based; conditions: in vivo
[10] = Tmax in Sprague-Dawley rat at 15 mg/kg, po measured upto 12 hrs by LC-MS analysis; type: ADME, organism-based; conditions: in vivo
[11] = AUC(0 to 12hrs) in Sprague-Dawley rat at 15 mg/kg, po measured upto 12 hrs by LC-MS analysis; type: ADME, organism-based; conditions: in vivo
[12] = Half life in Sprague-Dawley rat at 15 mg/kg, po measured upto 12 hrs by LC-MS analysis; type: ADME, organism-based; conditions: in vivo
[13] = MRT (0 to 12hrs) in Sprague-Dawley rat at 15 mg/kg, po measured upto 12 hrs by LC-MS analysis; type: ADME, organism-based; conditions: in vivo
MV4-11 [14] = test: Potency index, ratio of ONC201 IC50 to test compound IC50 for anti-leukemia activity against human MV4-11 cells assessed as decrease in cell proliferation incubated for 72 hrs by CCK-8 assay; type: functional

Compound | EC50 [1] [nM] | IC50 (MV4-11 [2]) [nM] | further results
COc1cccc(CN2CCc3[nH]c(NCc4ccccc4)nc(=O)c3C2)c1 | > 10000 | 1680 | 
O=c1nc(NCc2cccnc2)[nH]c2c1CN(Cc1ccccc1)CC2 | > 10000 | > 10000 | 
O=c1nc(NCC2CC2)[nH]c2c1CN(Cc1ccccc1)CC2 | > 10000 | > 10000 | 
O=c1nc(NCc2ccc(C(F)(F)F)cc2)[nH]c2c1CN(Cc1ccccc1)CC2 | 2100 | 1200 | 
Cc1ccccc1CN1C(=O)C2=C(CCN(Cc3ccccc3)C2)N2CCN=C12.Cl |  |  | Cmax [3]: 970 ng/mL; AUC(0-t) at 12 h [4]: 1270 ng·h/mL; half-life [5]: 1.1 h; clearance [6]: 96.7 mL/min/kg; MRT last at 12 h [7]: 0.7 h; bioavailability [8]: 14.8%; Cmax [9]: 448 ng/mL; Tmax [10]: 0.5 h; AUC(0-t) at 12 h [11]: 565 ng·h/mL; half-life [12]: 1.4 h; MRT last at 12 h [13]: 1.3 h
COc1cccc(CNc2nc(=O)c3c([nH]2)CCN(Cc2ccccc2)C3)c1 | > 10000 | > 10000 | 
Cc1ccccc1CN1CCn2c1nc(=O)c1c2CCN(Cc2ccccc2)C1 | 1920 | 350 | 
O=c1nc(NCc2ccccc2)[nH]c2c1CN(CC1CC1)CC2 | > 10000 | > 10000 | 
COc1ccccc1CNc1nc(=O)c2c([nH]1)CCN(Cc1ccccc1)C2 | > 10000 | > 10000 | 
Cc1ccc(CN2CCc3[nH]c(NCc4ccccc4)nc(=O)c3C2)cc1 | > 10000 | > 10000 | 
O=c1nc(NCc2ccccc2)[nH]c2c1CN(Cc1ccc(Cl)cc1)CC2 | 1210 | 970 | 
CS(=O)(=O)c1ccc(CN2CCc3[nH]c(NCc4ccccc4)nc(=O)c3C2)cc1 | > 10000 | > 10000 | 
O=c1nc(NCc2cccc(Br)c2)[nH]c2c1CN(Cc1ccccc1)CC2 | > 10000 | > 10000 | 
Cc1ccc(CNc2nc(=O)c3c([nH]2)CCN(Cc2ccccc2)C3)cc1 | 1110 | 1610 | 
O=c1nc(NCc2ccccc2)[nH]c2c1CN(Cc1cccc(Cl)c1)CC2 | 1090 | 930 | 
N#Cc1cccc(CN2CCc3[nH]c(NCc4ccc(F)c(F)c4)nc(=O)c3C2)c1 | 870 | 30 | Ratio IC50 (MV4-11 [14]): 20
O=c1nc(NCc2ccc(Cl)cc2)[nH]c2c1CN(Cc1ccccc1)CC2 | 1950 | 1690 | 
O=c1nc(NCC2CCCCC2)[nH]c2c1CN(Cc1ccccc1)CC2 | > 10000 | > 10000 | 
N#Cc1cccc(CN2CCc3[nH]c(NCc4ccccc4)nc(=O)c3C2)c1 | 610 | 450 | 

Compound | EC50 [1] [nM] | IC50 (MV4-11 [2]) [nM] | further results
O=c1nc(NCc2cccc(Cl)c2)[nH]c2c1CN(Cc1ccccc1)CC2 | > 10000 | 1880 | 
O=c1nc(NCc2ccc(C(F)(F)F)cc2)[nH]c2c1CN(Cc1ccc(Cl)c(Cl)c1)CC2 | > 10000 | > 10000 | 
O=c1nc(NCc2ccccc2)[nH]c2c1CN(Cc1ccccc1)CC2 | 1340 | > 10000 | 
O=c1nc(NCc2ccccc2)[nH]c2c1CN(Cc1ccccc1Cl)CC2 | 1350 | 1030 | 
O=c1nc(NCc2ccc(Cl)c(Cl)c2)[nH]c2c1CN(Cc1ccccc1)CC2 | 610 | 450 | 
O=c1nc(NCc2ccc(Br)cc2)[nH]c2c1CN(Cc1ccccc1)CC2 | 1950 | 930 | 
O=c1nc(NCc2cnccn2)[nH]c2c1CN(Cc1ccccc1)CC2 | > 10000 | > 10000 | 
O=c1nc(NCc2ccccc2)[nH]c2c1CN(CCc1ccccc1)CC2 | > 10000 | > 10000 | 
N#Cc1ccccc1CN1CCc2[nH]c(NCc3ccccc3)nc(=O)c2C1 | > 10000 | > 10000 | 
CCNc1nc(=O)c2c([nH]1)CCN(Cc1ccccc1)C2 | > 10000 | > 10000 | 
O=c1[nH]c(NCCc2ccccc2)nc2c1CN(Cc1ccccc1)CC2 | > 10000 | > 10000 | 
O=c1nc(NCc2ccc3c(c2)OCO3)[nH]c2c1CN(Cc1ccc(Cl)c(Cl)c1)CC2 | > 10000 | > 10000 | 
O=c1nc(NCc2ccccc2)[nH]c2c1CN(Cc1ccc(Cl)c(Cl)c1)CC2 | 1000 | 360 | 
CCN1CCc2[nH]c(NCc3ccccc3)nc(=O)c2C1 | > 10000 | > 10000 | 
O=c1nc(NCc2ccc3ccccc3c2)[nH]c2c1CN(Cc1ccccc1)CC2 | 2250 | 2400 | 
N#Cc1cccc(CN2CCc3[nH]c(NCc4ccc(C(F)(F)F)cc4)nc(=O)c3C2)c1 | > 10000 | > 10000 | 
COc1ccc(CNc2nc(=O)c3c([nH]2)CCN(Cc2ccccc2)C3)cc1 | 2020 | 830 | 
O=c1nc(NCc2ccc3c(c2)OCO3)[nH]c2c1CN(Cc1ccccc1)CC2 | 520 | 2900 | 
N#Cc1cccc(CN2CCc3[nH]c(NCc4ccc(Cl)c(Cl)c4)nc(=O)c3C2)c1 | 820 | 60 | 

Second part, led by results:

EC50 [1] [nM] | IC50 (MV4-11 [2]) [nM] | Compound | further results
> 10000 | > 10000 | O=c1nc(NCc2ccc(C(F)(F)F)cc2)[nH]c2c1CN(Cc1cc(F)cc(F)c1)CC2 | 
> 10000 | > 10000 | Cc1ccccc1CNc1nc(=O)c2c([nH]1)CCN(Cc1cc(F)cc(F)c1)C2 | 
1000 | 360 | O=c1nc(NCc2ccc(F)cc2)[nH]c2c1CN(Cc1ccccc1)CC2 | 
> 10000 | > 10000 | Cc1ccccc1CN1CCc2[nH]c(NCc3ccccc3)nc(=O)c2C1 | 
> 10000 | > 10000 | N#Cc1cccc(CN2CCc3[nH]c(NCc4cccc(F)c4)nc(=O)c3C2)c1 | 
1350 | 930 | O=c1nc(NCc2ccccc2F)[nH]c2c1CN(Cc1ccccc1)CC2 | 
> 10000 | > 10000 | O=c1nc(NCc2ccc3c(c2)OCO3)[nH]c2c1CN(Cc1cc(F)cc(F)c1)CC2 | 
> 10000 | > 10000 | O=c1nc(NCc2ccccc2)[nH]c2c1CN(Cc1ccc(F)cc1)CC2 | 
950 | 900 | O=c1nc(NCc2ccccc2)[nH]c2c1CN(Cc1cc(F)cc(F)c1)CC2 | 
> 10000 | > 10000 | O=c1nc(NCc2ccccc2Cl)[nH]c2c1CN(Cc1ccccc1)CC2 | 
2250 | 2400 | Cc1cccc(CN2CCc3[nH]c(NCc4ccccc4)nc(=O)c3C2)c1 | 
> 10000 | > 10000 | O=c1nc(NCc2ccccc2)[nH]c2c1CN(Cc1ccccc1F)CC2 | 
2100 | 1200 | O=c1nc(NCc2ccccc2)[nH]c2c1CN(Cc1ccc(F)c(F)c1)CC2 | 
> 10000 | > 10000 | O=c1nc(NCc2ccccc2Br)[nH]c2c1CN(Cc1ccccc1)CC2 | 
2020 | 830 | O=c1nc(NCc2ccccc2)[nH]c2c1CN(Cc1cccc(F)c1)CC2 | 
510 | 30 | O=c1nc(NCc2ccc(F)c(F)c2)[nH]c2c1CN(Cc1cc(F)cc(F)c1)CC2 | Ratio IC50 (MV4-11 [14]): 20
1410 | 480 | O=c1nc(NCc2ccc(F)c(F)c2)[nH]c2c1CN(Cc1ccccc1)CC2 | 
> 10000 | 1630 | Cc1cccc(CNc2nc(=O)c3c([nH]2)CCN(Cc2ccccc2)C3)c1 | 
> 10000 | > 10000 | O=c1nc(NCc2cccc(F)c2)[nH]c2c1CN(Cc1ccccc1)CC2 | 
1220 | 1510 | Cc1ccccc1CNc1nc(=O)c2c([nH]1)CCN(Cc1ccccc1)C2 | 
> 10000 | > 10000 | Cc1ccccc1CNc1nc(=O)c2c([nH]1)CCN(Cc1cccc(C#N)c1)C2 | 
